pIC50: −log10 of the molar value.

Sequence of Human RSK2 (P51812 whole entry): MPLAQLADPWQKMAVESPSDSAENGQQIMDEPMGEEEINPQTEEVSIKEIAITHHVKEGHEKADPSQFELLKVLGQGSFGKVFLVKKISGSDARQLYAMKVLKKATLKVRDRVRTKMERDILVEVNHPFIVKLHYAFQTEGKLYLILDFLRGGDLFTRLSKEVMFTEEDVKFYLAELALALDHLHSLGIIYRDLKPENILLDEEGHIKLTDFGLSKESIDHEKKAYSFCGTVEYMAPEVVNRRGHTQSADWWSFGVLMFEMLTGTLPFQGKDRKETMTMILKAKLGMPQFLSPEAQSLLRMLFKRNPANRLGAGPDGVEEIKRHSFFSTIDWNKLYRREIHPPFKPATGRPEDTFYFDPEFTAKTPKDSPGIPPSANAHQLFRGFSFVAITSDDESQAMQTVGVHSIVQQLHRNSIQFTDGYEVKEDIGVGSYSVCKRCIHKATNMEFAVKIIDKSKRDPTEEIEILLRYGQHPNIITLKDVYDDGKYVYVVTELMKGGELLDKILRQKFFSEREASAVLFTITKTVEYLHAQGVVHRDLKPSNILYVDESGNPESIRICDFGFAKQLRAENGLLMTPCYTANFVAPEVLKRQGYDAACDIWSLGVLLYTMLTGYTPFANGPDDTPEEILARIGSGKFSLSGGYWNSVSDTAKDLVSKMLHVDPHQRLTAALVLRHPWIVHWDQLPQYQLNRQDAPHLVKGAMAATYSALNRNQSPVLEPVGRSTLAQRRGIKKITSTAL

The target in this test is Human RSK2 (Homo sapiens (Human), UniProt P51812). In words: Human RSK2 Assay (Kinase Glo Plus, residual ATP). Particulars: 0.75 nM His-RSK2, 0.75 μM ATP, 1.0 μM S6 Kinase/RSK Substrate Peptide 1. Format: biochemical. The method, then:
Experimental Method A: Human RSK2 Assay
Compounds are assessed for their ability to inhibit the phosphorylation of a substrate peptide by RSK2.
Human RSK2 protein, purchased from Invitrogen, is used to measure kinase activity utilizing Kinase Glo Plus (Promega) a homogeneous assay technology, which uses a luciferin-luciferase based ATP detection reagent to quantify residual ATP. The assay is performed using 0.75 nM His-RSK2, 0.75 μM ATP and 1.0 μM S6 Kinase/RSK Substrate Peptide 1 (Upstate, catalog #12-124), in assay buffer consisting of 25 mM HEPES, pH 7.5, 10 mM MgCl2, 5 mM MnCl2, 50 mM KCl, 0.2% BSA, 0.01% CHAPS, 100 μM Na3VO4, 0.5 mM DTT, and 1% DMSO. Solutions of test compounds at various concentrations are prepared by 1:3 fold serial dilution of a 1 mM solution of compound in DMSO. The DMSO solutions are further diluted with assay buffer to a final concentration of DMSO of 5%.
The assay is performed in a 384 well, white, non-binding plate (Corning, catalogue #3574). Solutions of test compounds (10 μL) are transferred to a dry assay plate, followed by addition of 20 μL kinase and 20 μL ATP+Substrate Peptide 1 described above. The kinase reaction mixture is incubated for 90 minutes at 28° C. followed by addition of 30 μL of ATP detection reagent for 15 minutes at room temperature. The relative light unit (RLU) signal is measured on a LJL Analyst (Molecular Devices) in luminescence mode using 384 aperture. The RLU signals were converted to percent of control (POC) values using the formula: POC=100*(BCTRL−Signal)/(BCTRL−PCTRL), where Signal is the test well RLU signal, BCTRL is the average of background (negative control), which consists of ATP+peptide and compound buffer, well signals on the plate, and PCTRL is the average of positive control, which consists of kinase, ATP+peptide, and compound buffer, well signals on the plate. For concentration-responsive compounds, POC as a function of test compound concentration are fitted to a 4-parameter logistic equation of the form: Y=A+(B−A)/[1+(x/C)^D], where A, B, C, and D are fitted parameters (parameter B is fixed at zero POC), and x and y are the independent and dependent variables, respectively. The IC50 (50% inhibitory concentration) is determined as the inflection point parameter, C. Experimental Method B: Human RSK2 Trans-Reporter Assay
Broadly, the pIC50 is the IC50 on a negative log10 scale, so that one unit is a factor of ten. In the case of `CC1(C)CNC(=O)c2cc3ccc(C(=O)Nc4cnc5ccccc5c4)nc3n2C1` [Example 39, 9,9-dimethyl-6-oxo-N-(quinolin-3-yl)-7,8,9,10-tetrahydro-6H-pyrido[3′,2′:4,5]pyrrolo[1,2-a][1,4]diazepine-2-carboxamide], the negative logarithm of the IC50 (pIC50) was 7.04.

On to `CC1CCNC(=O)c2cc3ccc(C(=O)Nc4cnn(C)c4)nc3n21` (stereo not shown) [Example 40, 10-methyl-N-(1-methyl-1H-pyrazol-4-yl)-6-oxo-7,8,9,10-tetrahydro-6H-pyrido[3′,2′:4,5]pyrrolo[1,2-a][1,4]diazepine-2-carboxamide], for which the pIC50 was 9.11.

Regarding `Cn1cc(NC(=O)c2ccc3cc4n(c3n2)CCCNC4=O)cn1` [Example 41, N-(1-methyl-1H-pyrazol-4-yl)-6-oxo-7,8,9,10-tetrahydro-6H-pyrido[3′,2′:4,5]pyrrolo[1,2-a][1,4]diazepine-2-carboxamide], the negative-log IC50 (pIC50) was 8.32.

For the compound `Cn1cc(NC(=O)c2ccc3cc4n(c3n2)CC(C)(C)CNC4=O)cn1` [Example 42, 9,9-dimethyl-N-(1-methyl-1H-pyrazol-4-yl)-6-oxo-7,8,9,10-tetrahydro-6H-pyrido[3′,2′:4,5]pyrrolo[1,2-a][1,4]diazepine-2-carboxamide], the pIC50 was 7.14.

In the case of `CC1CCNC(=O)c2cc3ccc(C(=O)Nc4cnn(C(C)(C)C)c4)nc3n21` (stereo not shown) [Example 43, N-(1-tert-butyl-1H-pyrazol-4-yl)-10-methyl-6-oxo-7,8,9,10-tetrahydro-6H-pyrido[3′,2′:4,5]pyrrolo[1,2-a][1,4]diazepine-2-carboxamide], the pIC50 is 8.96.

For `CC(C)(C)n1cc(NC(=O)c2ccc3cc4n(c3n2)CCCNC4=O)cn1` [Example 44, N-(1-tert-butyl-1H-pyrazol-4-yl)-6-oxo-7,8,9,10-tetrahydro-6H-pyrido[3′,2′:4,5]pyrrolo[1,2-a][1,4]diazepine-2-carboxamide], the pIC50 was 8.01.

For `CC1(C)CNC(=O)c2cc3ccc(C(=O)Nc4cnn(C(C)(C)C)c4)nc3n2C1` [Example 45, N-(1-tert-butyl-1H-pyrazol-4-yl)-9,9-dimethyl-6-oxo-7,8,9,10-tetrahydro-6H-pyrido[3′,2′:4,5]pyrrolo[1,2-a][1,4]diazepine-2-carboxamide], the pIC50 is 7.30.

Take `CC1CCNC(=O)c2cc3ccc(C(=O)Nc4cnn(Cc5ccccc5)c4)nc3n21` (stereo not shown) [Example 46, N-(1-benzyl-1H-pyrazol-4-yl)-10-methyl-6-oxo-7,8,9,10-tetrahydro-6H-pyrido[3′,2′:4,5]pyrrolo[1,2-a][1,4]diazepine-2-carboxamide]: the pIC50 was 9.41.

Consider `O=C(Nc1cnn(Cc2ccccc2)c1)c1ccc2cc3n(c2n1)CCCNC3=O` [Example 47, N-(1-benzyl-1H-pyrazol-4-yl)-6-oxo-7,8,9,10-tetrahydro-6H-pyrido[3′,2′:4,5]pyrrolo[1,2-a][1,4]diazepine-2-carboxamide], for which the pIC50 was 8.42.

Turning to `CC1(C)CNC(=O)c2cc3ccc(C(=O)Nc4cnn(Cc5ccccc5)c4)nc3n2C1` [Example 48, N-(1-benzyl-1H-pyrazol-4-yl)-9,9-dimethyl-6-oxo-7,8,9,10-tetrahydro-6H-pyrido[3′,2′:4,5]pyrrolo[1,2-a][1,4]diazepine-2-carboxamide], the pIC50 is 7.92.

As to `O=C(Nc1nc2cc(Cl)cc(CN3CCOCC3)c2[nH]1)c1ccc2cc3n(c2n1)CCCNC3=O` [Example 49, N-[5-chloro-7-(morpholin-4-ylmethyl)-1H-benzimidazol-2-yl]-6-oxo-7,8,9,10-tetrahydro-6H-pyrido[3′,2′:4,5]pyrrolo[1,2-a][1,4]diazepine-2-carboxamide], the negative-log IC50 (pIC50) was 8.17.

With `CC1(C)CNC(=O)c2cc3ccc(C(=O)Nc4nc5cc(Cl)ccc5[nH]4)nc3n2C1` [Example 50, N-(5-chloro-1H-benzimidazol-2-yl)-9,9-dimethyl-6-oxo-7,8,9,10-tetrahydro-6H-pyrido[3′,2′:4,5]pyrrolo[1,2-a][1,4]diazepine-2-carboxamide], the negative-log IC50 (pIC50) is 7.26.

Regarding `Cn1c(NC(=O)c2ccc3cc4n(c3n2)CCCNC4=O)nc2ccccc21` [Example 51, N-(1-methyl-1H-benzimidazol-2-yl)-6-oxo-7,8,9,10-tetrahydro-6H-pyrido[3′,2′:4,5]pyrrolo[1,2-a][1,4]diazepine-2-carboxamide], the negative-log IC50 (pIC50) was 6.44.

`Cn1c(NC(=O)c2ccc3cc4n(c3n2)CC(C)(C)CNC4=O)nc2ccccc21` [Example 52, 9,9-dimethyl-N-(1-methyl-1H-benzimidazol-2-yl)-6-oxo-7,8,9,10-tetrahydro-6H-pyrido[3′,2′:4,5]pyrrolo[1,2-a][1,4]diazepine-2-carboxamide]: the negative-log IC50 (pIC50) is 5.60.

Regarding `CC(C)n1c(NC(=O)c2ccc3cc4n(c3n2)CCCNC4=O)nc2ccccc21` [Example 53, 6-oxo-N-[1-(propan-2-yl)-1H-benzimidazol-2-yl]-7,8,9,10-tetrahydro-6H-pyrido[3′,2′:4,5]pyrrolo[1,2-a][1,4]diazepine-2-carboxamide], the negative-log IC50 (pIC50) is 6.20.

As to `CC(C)n1c(NC(=O)c2ccc3cc4n(c3n2)CC(C)(C)CNC4=O)nc2ccccc21` [Example 54, 9,9-dimethyl-6-oxo-N-[1-(propan-2-yl)-1H-benzimidazol-2-yl]-7,8,9,10-tetrahydro-6H-pyrido[3′,2′:4,5]pyrrolo[1,2-a][1,4]diazepine-2-carboxamide], the pIC50 is 5.89.

As to `CCn1c(NC(=O)c2ccc3cc4n(c3n2)CCCNC4=O)nc2ccccc21` [Example 55, N-(1-ethyl-1H-benzimidazol-2-yl)-6-oxo-7,8,9,10-tetrahydro-6H-pyrido[3′,2′:4,5]pyrrolo[1,2-a][1,4]diazepine-2-carboxamide], the pIC50 is 6.85.

As to `CCn1c(NC(=O)c2ccc3cc4n(c3n2)CC(C)(C)CNC4=O)nc2ccccc21` [Example 56, N-(1-ethyl-1H-benzimidazol-2-yl)-9,9-dimethyl-6-oxo-7,8,9,10-tetrahydro-6H-pyrido[3′,2′:4,5]pyrrolo[1,2-a][1,4]diazepine-2-carboxamide], the pIC50 is 6.71.

For the compound `CN(C)CCCn1c(NC(=O)c2ccc3cc4n(c3n2)CCCNC4=O)nc2ccccc21` [Example 57, N-{1-[3-(dimethylamino)propyl]-1H-benzimidazol-2-yl}-6-oxo-7,8,9,10-tetrahydro-6H-pyrido[3′,2′:4,5]pyrrolo[1,2-a][1,4]diazepine-2-carboxamide], the negative logarithm of the IC50 (pIC50) was 6.61.

On to `CN(C)CCCn1c(NC(=O)c2ccc3cc4n(c3n2)CC(C)(C)CNC4=O)nc2ccccc21` [Example 58, N-{1-[3-(dimethylamino)propyl]-1H-benzimidazol-2-yl}-9,9-dimethyl-6-oxo-7,8,9,10-tetrahydro-6H-pyrido[3′,2′:4,5]pyrrolo[1,2-a][1,4]diazepine-2-carboxamide], for which the negative logarithm of the IC50 (pIC50) was 5.64.

In the case of `C[C@@H]1CNC(=O)c2cc3ccc(C(=O)Nc4cnn(Cc5ccccc5)c4)nc3n21` [Example 59, (9R)-N-(1-benzyl-1H-pyrazol-4-yl)-9-methyl-6-oxo-6,7,8,9-tetrahydropyrido[3′,2′:4,5]pyrrolo[1,2-a]pyrazine-2-carboxamide], the pIC50 is 9.70.

Regarding `C[C@H]1CNC(=O)c2cc3ccc(C(=O)Nc4cnn(Cc5ccccc5)c4)nc3n21` [Example 60, (9S)-N-(1-benzyl-1H-pyrazol-4-yl)-9-methyl-6-oxo-6,7,8,9-tetrahydropyrido[3′,2′:4,5]pyrrolo[1,2-a]pyrazine-2-carboxamide], the pIC50 was 7.92.

Consider `CC(C)n1ncc2cc(NC(=O)c3ccc4cc5n(c4n3)[C@@H](C)CNC5=O)cnc21` [Example 63, (9S)-9-methyl-6-oxo-N-[1-(propan-2-yl)-1H-pyrazolo[3,4-b]pyridin-5-yl]-6,7,8,9-tetrahydropyrido[3′,2′:4,5]pyrrolo[1,2-a]pyrazine-2-carboxamide], for which the negative-log IC50 (pIC50) was 7.08.

With `C[C@@H]1CNC(=O)c2cc3ccc(C(=O)Nc4cnc5ccccc5c4)nc3n21` [Example 64, (9R)-9-methyl-6-oxo-N-(quinolin-3-yl)-6,7,8,9-tetrahydropyrido[3′,2′:4,5]pyrrolo[1,2-a]pyrazine-2-carboxamide], the negative-log IC50 (pIC50) is 8.52.

As to `C[C@H]1CNC(=O)c2cc3ccc(C(=O)Nc4cnc5ccccc5c4)nc3n21` [Example 65, (9S)-9-methyl-6-oxo-N-(quinolin-3-yl)-6,7,8,9-tetrahydropyrido[3′,2′:4,5]pyrrolo[1,2-a]pyrazine-2-carboxamide], the negative logarithm of the IC50 (pIC50) is 7.47.

The record behind these values is patent publication US9073926B2, “Heterocyclic compounds containing a pyrrolopyridine or benzimidazole core” (Boehringer Ingelheim International GmbH, priority 2009, dated 2015).
